Experimental findings from publication PMC11982498 (Redox Biology, 2025) are described below.

One may read the KD as the equilibrium constant for the complex coming apart. Read a high KD as weaker binding. One may read the IC50 as the concentration at which inhibition is half-maximal. Higher therefore signals a need for much substance. As a reminder, the Kd is a measure of binding affinity in units of concentration. The low end stands for tighter binding, the high end for weaker binding.

Test [1] concerns APP/PS1 transgenic mice. Nature of the test: Open field test (OFT). It is filed as in vivo. As to conditions: B14 10, 20, 40 mg/kg i.p. every other day. From the text: (§1) Five months old male APP/PS1 mice, weighing 25–33 g, were purchased from Guangdong Medical Laboratory Animal Center and housed in the Laboratory Animal Center of Sun Yat-sen University (Guangzhou, China) for experimentation. All procedures were approved by the Animal Care and Use Committee of Sun Yat-sen University and complied with legal requirements and national guidelines for the care and maintenance of laboratory animals (Approval No. SYSU-IACUC-2024-002032). The mice were housed in a specific pathogen-free environment with a controlled temperature of 22 ± 1 °C and a 12-h dark/light cycle. The mice were fed with a standard diet, and 30 mice were randomly divided into 6 groups (N = 5). Compound B14 was dissolved in saline and administered at doses of 10, 20, or 40 mg/kg. APP/PS1 male mice were grown until 6 months of age, and then injected intraperitoneally with compound B14 every other day for 60 days. Behavioral experiments were then conducted, and tissue specimens were collected for biochemical analysis.
(§2) The spatial memory and learning abilities of the mice were assessed using Morris water maze (MWM), novel object recognition (NOR) and nesting experiments (NBT). The anxiety and depressive behaviors were evaluated through the open field test (OFT) and elevated plus maze (EPM). Detailed experimental procedures are provided in the supplementary information. […]

The subject of test [2] is APP/PS1 transgenic mice. Kind of test: Elevated plus maze (EPM). It counts as in vivo. As to conditions: B14 10, 20, 40 mg/kg i.p. every other day.
Description: as §1, §2

Test [3] has as its system bio-ILPR (DNA, i motif) TGTCCCCACACCCCTGTCCCCACACCCCTGT
Nature of the test: SPR. As to conditions: K+ 100 mM; 20 mM MES, pH 5.5, 25 °C.

Test [4] relates to BCL-2 gene transcription in brain of APP/PS1 mice. Nature of the test: Real-time RT-PCR of mice brain, BCL-2. To be noted: for F = 2^-∆∆Ct (relative expression fold), BCL-2: relative to WT. It counts as in vivo. As for the experimental part: Five months old male APP/PS1 mice, weighing 25–33 g, were purchased from Guangdong Medical Laboratory Animal Center and housed in the Laboratory Animal Center of Sun Yat-sen University (Guangzhou, China) for experimentation. […] The mice were housed in a specific pathogen-free environment with a controlled temperature of 22 ± 1 °C and a 12-h dark/light cycle. The mice were fed with a standard diet, and 30 mice were randomly divided into 6 groups (N = 5). […] Behavioral experiments were then conducted, and tissue specimens were collected for biochemical analysis.
^a -∆∆Ct = -[(Ct value of genes in treated sample - Ct value of genes in control) - (Ct value of β-actin in treated sample - Ct value of β-actin in control)]. ^b F: The relative expression fold.
Following sample homogenization, chloroform was added, and the solution was allowed to have phase separation into an upper aqueous layer (containing RNA), an interphase, and a lower organic layer (containing DNA and proteins). RNA was precipitated from the aqueous phase using isopropanol, while DNA was precipitated from the aqueous-organic interphase using ethanol.
Quantitative real-time polymerase chain reaction (qRT-PCR) was performed using the 2× RealStar SYBR Mixture (GenStar, Cat# A301-10, Guangzhou, China) on a LightCycler 480 II real-time PCR system (Roche, USA). Data were analyzed using the 2^−ΔΔCt method. Actin served as the internal control, and relative mRNA levels were normalized accordingly.
In general terms: Real-time PCR tracks product formation cycle by cycle.

For test [5], the system named is BCL-2(G4) (DNA, G4) AGGGGCGGGCGCGGGAGGAAGGGGGCGGGAGCGGGGCTG
Nature of the test: ESI-MS. To be noted: K+ 100 mM KCl plus potassium phosphate; BPES buffer, pH 7.4; no adduct peak.

Test [6] concerns RB promoter i-motif. Kind of test: TO displacement assay, RB i-motif. It counts as binding. How it is done:
(§3) DNA oligonucleotides were diluted to 1 μM with 1 × PBES buffer at pH 5.5, annealed at 95 °C for 10 min, cooled to room temperature, and stored at 4 °C for future use. TO dye (1 μM) was added to the DNA solution followed with incubation for 1 h. The spectra of 100 μL mixture with addition of different equivalent compounds at 25 °C were recorded based on fluorescence emission (λex = 480 nm).
(§4) TO displacement ratio (%) = (F0 − FC) / (F0 − FB) * 100.
(§5) F0 and FC were the fluorescence intensity of TO at 536 nm with DNA before and after adding compounds, respectively. FB was the fluorescence intensity of TO at 536 nm with buffer only.

Test [7] deals with HK-2 cells. Nature of the test: MTT cytotoxicity assay, HK-2. It counts as cell-based. As to conditions: Homo sapiens, incubation for 48 h. How it is done:
SH-SY5Y cells, HepG2 cells, HK-2 cells and HT-22 cells were seeded on 96-well plates (5.0×10^3 per well) with 100 μL of culture medium, and incubated for 12 h at 37 °C in a humidified atmosphere with 5% CO2, and then exposed to various concentrations of B14. After 48 h of treatment at 37 °C in a humidified atmosphere with 5% CO2, 100 μL of 0.5 mg/mL MTT solution was added to each well, and the mixture was further incubated for 4 h. The cells in each well were then treated with DMSO (200 μL for each well), and the culture medium was siphoned off, and the absorbance was recorded at 570 nm. All drug doses were parallel tested in triplicate, and the cytotoxicity was evaluated based on the percentage of cell survival in a dose-dependent manner regarding the negative control. The final IC50 values were determined by using Graph Pad Prism 9.0.

Test [8] addresses BCL-2 G-quadruplex (BCL-2 G4). Kind of test: MST binding to BCL-2 G-quadruplex. As to conditions: Tris-HCl buffer pH 7.4. As for the experimental part:
After incubation of DNA with compound for 60 min, the sample was loaded in MST-grade glass capillaries. The intensity of the LED power was set at 20 %, and the MST laser was set at 40 %. The analyses were performed using a Monolith NT.115, and the fitting curve was obtained by using NT Analysis 1.5.41 via Hill fitting. The KD value represents the numeric equivalent of the concentration of B14 when the response is half of the plateau response (Rmax) of the fitting curve.

Test [9] deals with RET promoter i-motif. Kind of test: TO displacement assay, RET i-motif. It is filed as binding. How it is done:
as §3, §4, §5

Consider `O=C(CCN1CCOCC1)Nc1ccc2c(c1)c(=O)c1cc(NC(=O)CCN3CCOCC3)ccc1n2-c1ccc2occc2c1` [Compound B14], for which the “range and duration of activity (OFT)” value in [1] is “significant improvement in the range and duration of activity”. For the same compound, the “number of entries into the open arm and retention time (EPM)” value in test [2] was “significantly increased”. For the same compound, the KD in test [3] was above 50 µM. The “-∆∆Ct, BCL-2” value in test [4] (10 mg/kg) is on record as 0.39; in test [4] (20 mg/kg), 0.17; in [4] (40 mg/kg), -0.01. The “F = 2^-∆∆Ct (relative expression fold), BCL-2” value in test [4] (10 mg/kg) was found to be 0.76; in test [4] (20 mg/kg), 0.88; in test [4] (40 mg/kg), 1.00. Moreover, the binding entry in test [5] is on record as “no”. Further, the results for the TO displacement ratio in test [6] and in [9] were 1% and 27%, respectively. In test [7], this compound yielded an IC50 above 100 µM. In addition, the Kd in [8] turned out to be 59.8 µM.
